Values of other authors in patent US20080279952A1, “Controlled-Release Flupirtine Compositions, Compacts, Kits and Methods of Making and Use Thereof” (priority 2007, published 2008).

Legend:
[1] = in vivo
[2] = in vivo; remark: listed apart in the source

portion of the administered dose metabolized in the liver [2]	Compound	analgesic effect as percentage of that of flupirtine [1]
–	CC(=O)Nc1ccc(NCc2ccc(F)cc2)nc1N [2-amino-3-acetamino-6-(4-fluor)-benzyl-amino-pyridine]	about 25%
Approximately 75%	CCOC(=O)Nc1ccc(NCc2ccc(F)cc2)nc1N [flupirtine]	–
